The source of these data is patent US20080026986A1, “REVERSAL OF THE SUPPRESSIVE FUNCTION OF SPECIFIC T CELLS VIA TOLL-LIKE RECEPTOR 8 SIGNALING” (priority 2006, published 2008).

“Also recorded” adds a separate entry of the source.

The test system of one test is PTIL194 and PTIL237. The test is described as follows: Reversal of suppressive function of PTIL194 and PTIL237 by TLR ligands (naïve CD4+ T cell proliferation). It is filed as cell-based, human. The note with it: naïve CD4+ T cells:Treg 10:1, OKT3-coated plates, FIG. 5A. How it is done: (§1) (C) Expression of TLR8 mRNA in CD4^+ Treg and CD8^+ Treg cell clones generated from PTIL194 by RT-PCR.
Naïve CD4^+ T cells were purified from PBMCs by using microbeads (Miltenyi Biotec). Naïve CD4^+ T cells (10^5/well) were cultured with regulatory T cells at a ratio of 10:1 in OKT3 (2 μg/ml)-coated, U bottomed 96-well plates containing the following TLR ligands. […] CpG-A (3 μg/ml), CpG-B (3 μg/ml) and poly-G3 oligonucleotides (3 μg/ml) were synthesized by Integrated DNA Technologies (Coralville, Iowa). All experiments were performed at least more than once.
CD4^+ CD25-T cells (2×10^5) purified from human PBMCs by antibody-coated beads (Dynal, Inc.) were cultured for 60 hours in U-bottomed 96-well plates containing 5×104 CD3-depleted APCs, 0.1 μg/ml anti-CD3 mAb, and different numbers of CD4^+ regulatory or effector T cells. The proliferation of responder T cells was determined by the incorporation of [H^3]thymidine for the last 16 hours of culture, as previously described (Wang et al., 2004; Wang et al., 2005). Cells were harvested and the radioactivity counted in a scintillation counter. All experiments were performed in triplicate. Transwell experiments were performed in 24-well plates with a pore size of 0.4 μm (Coming Costar, Cambridge, Mass.). 2×10^5 the freshly purified naïve CD4^+ T cells were cultured in the outer wells of 24-well plate in medium containing 0.1 μg/ml anti-CD3 antibody and 2×10^5 APCs. Equal numbers of regulatory T cells or nonregulatory T cells were added into the inner wells in the same medium containing 0.5 μg/ml anti-CD3 antibody and 2×10^5 APCs. After 56 hours of culture, the cells in the outer and inner wells were harvested separately and transferred to 96-well plates. [H^3]thymidine was added, and the cells were cultured for an additional 16 hours before harvest for the radioactivity counting with a liquid scintillation counter.
Naïve CD4^+ T cells were purified from PBMCs by use of microbeads (Miltenyi Biotec). Naïve CD4^+ T cells (10^5/well) were cultured with regulatory T cells at a ratio of 10:1 in OKT3 (2 μg/ml)-coated, U bottomed 96-well plates containing the following ligands. […] CpG-A (3 μg/ml), CpG-B (3 μg/ml) and poly-G oligonucleotides (3 μg/ml) were synthesized by Integrated DNA Technologies (Coralville, Iowa).

Test [1] relates to naturally occurring CD4+ CD25+ Treg cells. The test is described as follows: Reversal of suppressive function of naturally occurring CD4+ CD25+ Treg cells. Type of test: cell-based.
For the next test, the system named is CD4+ Treg cells. In words: Naïve T cell proliferation assay with CD4+ Treg cell populations/clones with or without TLR ligands. The note with it: prostate tumor-derived (PTIL194); FIGS. 5A, 5B. It is filed as cell-based, human. How it is done: as §1
(§2) To test this possibility, the suppressive effects of CD4^+ and CD8^+ Treg cells were examined on naïve T cell proliferation in a functional assay, with or without TLR8 ligands (Poly-G2 and ssRNA40) or ligands for other TLRs.
(§3) CD4^+ CD25-T cells (2×10^5) purified from human PBMCs by antibody-coated beads (Dynal, Inc.) were cultured for 60 hours in U-bottomed 96-well plates containing 5×104 CD3-depleted APCs, 0.1 μg/ml anti-CD3 mAb, and different numbers of CD4^+ regulatory or effector T cells. The proliferation of responder T cells was determined by the incorporation of [H^3]thymidine for the last 16 hours of culture, as previously described (Wang et al., 2004; Wang et al., 2005). Cells were harvested and the radioactivity counted in a scintillation counter. All experiments were performed in triplicate. Transwell experiments were performed in 24-well plates with a pore size of 0.4 μm (Coming Costar, Cambridge, Mass.). 2×10^5 the freshly purified naïve CD4^+ T cells were cultured in the outer wells of 24-well plate in medium containing 0.1 μg/ml anti-CD3 antibody and 2×10^5 APCs. […] [H^3]thymidine was added, and the cells were cultured for an additional 16 hours before harvest for the radioactivity counting with a liquid scintillation counter. […]

The test system of the next test is CD8+ Treg cells. In words: Naïve T cell proliferation assay with CD8+ Treg cell populations/clones with or without TLR ligands. It is filed as cell-based, human. The note with it: prostate tumor-derived (PTIL194); FIGS. 5A, 5B. How it is done: as §1, §2, §3
The subject of test [2] is BTIL31 γδ1 Treg cells. In words: Naïve CD4+ T cell proliferation ([3H]-thymidine) in coculture with BTIL31 cells plus TLR ligands. It is filed as cell-based, human. The note with it: naïve CD4+ T cells:BTIL31 10:1, OKT3-coated plates; FIG. 13A. How it is done: (§4) In addition, naïve CD4^+ T cells were cultured in the presence of supernatants derived from BTIL31 cells pre-treated with or without the indicated TLR ligands. The proliferation of naïve CD4^+ T cells was determined by [^3H]-thymidine incorporation assay described herein. […] CFSE-labeled Naïve CD4^+ T cells cocultured with BTIL31 cells or its clones in the presence or absence of Poly-G3 in OKT3-coated 24-well plates. After 3 days of culture, cells were harvested and analyzed for divisions by FACS gated on the CFSE-labeled cells. CFSE-labeled Naïve CD4^+ T cells alone served as a control. […] BTIL31 cells were cultured in the presence or absence of Poly-G3 for 2 days, and then tested the ability of Poly-G3-treated and untreated BTIL31 cells to kill BC31 autologous tumor cells.
Naïve CD4^+ T cells were purified from PBMCs by using microbeads (Miltenyi Biotec). Naïve CD4^+ T cells (10^5/well) were cultured with regulatory T cells at a ratio of 10:1 in OKT3 (2 μg/ml)-coated, U bottomed 96-well plates containing the following TLR ligands. […] CpG-A (3 μg/ml), CpG-B (3 μg/ml) and poly-G3 oligonucleotides (3 μg/ml) were synthesized by Integrated DNA Technologies (Coralville, Iowa). All experiments were performed at least more than once. […]

For test [3], the system named is BTIL31 γδ1 Treg cells. The test is described as follows: Naïve CD4+ T cell proliferation with supernatants from TLR ligand-treated BTIL31 cells. Type of test: cell-based, human. The note with it: FIG. 13A. How it is done: as §4
(§5) To test whether the suppressive function of BTIL31 γδ1 Treg cells could be reversed by TLR-8 ligands, cells were treated with a panel of TLR ligands and then test their ability to suppress naïve T cell proliferation. […] After 48 h, CFSE-labeled cells were gated for FACS analysis.

In test [4] the test system is BTIL31 γδ1 Treg cells. The test is described as follows: CFSE-labeled naïve CD4+ T cell division in coculture with BTIL31 cells or clones. It is filed as cell-based, human. The note with it: coculture with BTIL31 bulk cells or clones, FACS, FIG. 13B. How it is done: as §4, §5
Test [5] has as its system BTIL31 γδ1 Treg cells. The test is described as follows: Killing of BC31 autologous tumor cells by Poly-G3-treated BTIL31 cells. Type of test: cell-based, human. The note with it: BTIL31 cultured with Poly-G3 for 2 days; FIG. 13C. How it is done: (A). Reversal of the suppressive function of γδ 1 T cells by TLR8 ligands, but not by ligands for other TLRs. naïve CD4^+ T cells were cultured with BTIL31 cells at the ratio of 10:1 in the U bottom 96-well plates pre-coated with OKT3 in the presence of different TLR ligands: LPS, CpG-A, CpG-B, Imiquimod-R837, loxoribine, poly (I: C), ssRNA40/LyoVec, RNA33/LyoVec, pam3CSK4, flagellin and Poly-G3. In addition, naïve CD4^+ T cells were cultured in the presence of supernatants derived from BTIL31 cells pre-treated with or without the indicated TLR ligands. The proliferation of naïve CD4^+ T cells was determined by [^3H]-thymidine incorporation assay described herein. Results are one representative data of three independent experiments. (B) Restoration of CFSE-naïve CD4^+ T cell division by Poly-G3 oligonucleotides. CFSE-labeled Naïve CD4^+ T cells cocultured with BTIL31 cells or its clones in the presence or absence of Poly-G3 in OKT3-coated 24-well plates. After 3 days of culture, cells were harvested and analyzed for divisions by FACS gated on the CFSE-labeled cells. CFSE-labeled Naïve CD4^+ T cells alone served as a control. (C) Poly-G treatment had no effect on TRAIL-mediated killing activity. BTIL31 cells were cultured in the presence or absence of Poly-G3 for 2 days, and then tested the ability of Poly-G3-treated and untreated BTIL31 cells to kill BC31 autologous tumor cells. […]

As for `CC(C)Cn1cnc2c(N)nc3ccccc3c21` [imiquimod, Imiquimod], the “Restoration of Treg cell suppressed proliferation of naïve CD4+ T cells” value (“Restoration … of naïve CD4+ T cells” below) with PTIL194 and PTIL237 was “no effect”. In addition, in test [1], the “Effect on naturally occurring CD4+ CD25+ Treg cells” value is on record as “little or no effect”.
Consider `C=CCn1c(=O)n([C@@H]2O[C@H](CO)[C@@H](O)[C@H]2O)c2nc(N)[nH]c(=O)c21` [loxoribine], for which, in the test on PTIL194 and PTIL237, the “Restoration … of naïve CD4+ T cells” value is “no effect”.
Consider AAG*GA [Poly-G2], for which, in the test with PTIL194 and PTIL237, the “Restoration … of naïve CD4+ T cells” value was “Restoration”. Further, the “Reversal of suppressive function of CD4+ Treg-containing cell populations and Treg cell clones” value with CD4+ Treg cells is “abolished; also recorded: Reversal of suppressive function”. The “Reversal of suppressive function of CD8+ Treg-containing cell populations and clones” value in the test on CD8+ Treg cells is given as “Reversal of suppressive function”.
Take AG*G*GA [Poly-G3]: the “Reversal of the suppressive function of BTIL31 γδ1 Treg cells (proliferation of naïve CD4+ T cells)” value with BTIL31 γδ1 Treg cells [2] was “reverse the suppressive function”. For the same molecule, the “Effect of supernatants from ligand-treated γδ1 Treg cells on proliferation of naïve CD4+ T cells” value with BTIL31 γδ1 Treg cells [3] was “enhanced rather than inhibited”. Also, the “Restoration of proliferation or division of CFSE-labeled naïve CD4+ T cells” value with BTIL31 γδ1 Treg cells [4] was “Restoration”; in the test on BTIL31 γδ1 Treg cells [4] (listed as poly-G3) it was “completely restored”. Moreover, the “Effect on TRAIL-mediated killing of BC31 tumor cells by BTIL31 cells” value in the test on BTIL31 γδ1 Treg cells [5] was “no effect”.
In the case of pam3CSK4, in the test with PTIL194 and PTIL237, the “Restoration … of naïve CD4+ T cells” value was “no effect”.
For poly(I:C), the “Restoration … of naïve CD4+ T cells” value in the test on PTIL194 and PTIL237 is given as “no effect”.
